Laboratory results from patent US7718673B2, “Isonipecotamides for the treatment of integrin-mediated disorders” (Ortho-McNeil Pharmaceutical, Inc., priority 1999, dated 2010).

Legend:
[1] = molecular target: RGD-affinity purified GPIIb/IIIa (Homo sapiens, UniProt P05106+P08514); test: In vitro solid phase purified GPIIb/IIIa binding assay (biotinylated fibrinogen); details: fibrinogen binding to immobilized GPIIb/IIIa; read-out: IIb/IIIa IC50
Method: In Vitro Solid Phase Purified GP IIB/IIIA Binding Assay
The plate was covered and incubated overnight at 4° C. The GPIIb/IIIa solution was discarded and 150 μl of 5% BSA was added and incubated at RT for 1-3 h. The plate was washed extensively with modified Tyrodes buffer. Biotinylated fibrinogen (25 μl/well) at 2× final concentration was added to the wells that contain the test compounds (25 μl/well). The plate was covered and incubated at RT for 2-4 h. Twenty minutes prior to incubation completion, one drop of Reagent A (VectaStain ABC Horse Radish Peroxidase kit, Vector Laboratories, Inc.) and one drop Reagent B were added with mixing to 5 mL modified Tyrodes buffer mix and let stand. The ligand solution was discarded and the plate washed (5×200 μl/well) with modified Tyrodes buffer. Vecta Stain HRP-Biotin-Avidin reagent (50 μl/well, as prepared above) was added and incubated at RT for 15 min. The Vecta Stain solution was discarded and the wells washed (5×200 μl/well) with modified Tyrodes buffer. Developing buffer (10 mL of 50 mM citrate/phosphate buffer @ pH 5.3, 6 mg o-phenylenediamine, 6 μl 30% H2O2; 50 μl/well) was added and incubated at RT for 3-5 min, and then 2 NH2SO4 (50 μl/well) was added. The absorbance was read at 490 nm.

Human αvβ3 = molecular target: T1, Human αvβ3 (Homo sapiens, UniProt P05106+P06756); test: In vitro solid phase purified αvβ3 binding assay (vitronectin/αvβ3); details: vitronectin binding to immobilized αvβ3; read-out: αvβ3 IC50
T1 construct: purchased Chemicon International Inc., Temecula, Calif
Method: In Vitro Solid Phase Purified αvβ3 Binding Assay
The vitronectin/αvβ3 binding assay methods were derived from Mehta et al. (Biochem J. 1998, 330, 861). Human αvβ3 (Chemicon International Inc., Temecula, Calif.), at a concentration of 1 μg/ml dissolved in Tris buffer (20 mM Tris, 1 mM CaCl2, […], 10 μM MnCl2, 150 mM NaCl), was immobilized on Immulon 96 well plates (Dynex Technologies, Chantilly, Va.) overnight at 4° C. Plates were washed and treated with blocking buffer (3% BSA in Tris buffer) for 2 h at 37° C. Plates were then rinsed 2 times with Tris buffer containing 0.3% BSA and 0.2% Tween20 (polyoxyethylenesorbitan monolaurate). Five minutes prior to the addition of 5 nM vitronectin (Sigma, St. Louis, Mo.), synthesized compounds were added to wells in duplicate. Each plate included c-RGDfV as an internal control. Following a 3 hour incubation at 37° C., plates were washed 5 times in assay buffer. An anti-human vitronectin IgG rabbit polyclonal antibody (Calbiochem, San Diego, Calif.) was added (1:2000) and plates were incubated for 1 hour at room temperature. VectaStain ABC peroxidase kit reagents (Vector Laboratories, Burlingame, Calif.) employing a biotin labeled anti-rabbit IgG, were utilized for detection of bound antibody. Plates were read at 490 nm on a Molecular Devices (Sunnyvale, Calif.) microplate reader.

T1 sequence (P06756 31-889 limits assumed): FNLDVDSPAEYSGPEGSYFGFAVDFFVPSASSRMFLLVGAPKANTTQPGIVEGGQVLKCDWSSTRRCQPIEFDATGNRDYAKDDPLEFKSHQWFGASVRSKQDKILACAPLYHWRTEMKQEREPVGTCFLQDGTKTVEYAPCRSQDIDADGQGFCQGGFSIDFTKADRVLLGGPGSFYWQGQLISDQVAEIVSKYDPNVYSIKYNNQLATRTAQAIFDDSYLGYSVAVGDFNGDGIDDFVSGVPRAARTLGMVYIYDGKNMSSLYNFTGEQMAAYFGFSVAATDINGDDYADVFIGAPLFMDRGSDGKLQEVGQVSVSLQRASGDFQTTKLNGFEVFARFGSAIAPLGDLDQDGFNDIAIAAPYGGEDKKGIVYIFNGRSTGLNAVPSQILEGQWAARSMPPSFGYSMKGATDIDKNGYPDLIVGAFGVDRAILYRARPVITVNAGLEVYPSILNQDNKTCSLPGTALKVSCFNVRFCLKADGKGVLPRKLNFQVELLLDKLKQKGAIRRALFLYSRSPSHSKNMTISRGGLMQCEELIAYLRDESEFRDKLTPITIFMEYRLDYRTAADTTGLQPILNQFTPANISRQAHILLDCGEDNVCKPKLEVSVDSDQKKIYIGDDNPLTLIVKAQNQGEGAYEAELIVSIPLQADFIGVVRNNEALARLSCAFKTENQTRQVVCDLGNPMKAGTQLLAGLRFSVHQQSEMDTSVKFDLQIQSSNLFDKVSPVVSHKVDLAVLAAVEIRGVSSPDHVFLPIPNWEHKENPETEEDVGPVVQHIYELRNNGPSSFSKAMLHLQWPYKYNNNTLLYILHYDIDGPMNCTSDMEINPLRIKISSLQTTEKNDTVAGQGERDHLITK
T1 sequence (P06756 891-1048 partner limits assumed): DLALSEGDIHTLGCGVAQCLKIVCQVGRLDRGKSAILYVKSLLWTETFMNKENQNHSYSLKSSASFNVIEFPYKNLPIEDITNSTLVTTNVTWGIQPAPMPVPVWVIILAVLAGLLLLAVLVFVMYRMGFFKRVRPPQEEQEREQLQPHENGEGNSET
T1 sequence (P05106 27-788): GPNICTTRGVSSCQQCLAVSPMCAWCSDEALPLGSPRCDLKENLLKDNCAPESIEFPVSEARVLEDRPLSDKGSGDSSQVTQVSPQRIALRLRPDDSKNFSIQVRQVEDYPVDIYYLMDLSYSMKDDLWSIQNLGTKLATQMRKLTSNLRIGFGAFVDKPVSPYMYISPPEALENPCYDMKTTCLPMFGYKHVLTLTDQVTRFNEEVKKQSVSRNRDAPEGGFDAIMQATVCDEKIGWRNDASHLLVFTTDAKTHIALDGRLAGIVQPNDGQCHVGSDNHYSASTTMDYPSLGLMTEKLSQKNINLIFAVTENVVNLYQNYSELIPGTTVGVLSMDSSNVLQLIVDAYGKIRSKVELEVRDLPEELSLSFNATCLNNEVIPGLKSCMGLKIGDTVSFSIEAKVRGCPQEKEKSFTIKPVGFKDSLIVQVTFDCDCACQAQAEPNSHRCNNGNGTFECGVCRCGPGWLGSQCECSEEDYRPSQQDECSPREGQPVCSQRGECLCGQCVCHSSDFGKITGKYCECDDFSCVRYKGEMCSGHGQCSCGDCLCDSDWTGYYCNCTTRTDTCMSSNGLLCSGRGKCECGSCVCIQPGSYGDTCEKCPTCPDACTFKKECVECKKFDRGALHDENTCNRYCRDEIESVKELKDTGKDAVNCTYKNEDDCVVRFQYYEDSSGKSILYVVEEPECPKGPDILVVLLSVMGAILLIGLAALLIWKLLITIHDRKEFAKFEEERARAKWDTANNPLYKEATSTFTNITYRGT
Sequence of RGD-affinity purified GPIIb/IIIa (P08514 32-887 limits assumed): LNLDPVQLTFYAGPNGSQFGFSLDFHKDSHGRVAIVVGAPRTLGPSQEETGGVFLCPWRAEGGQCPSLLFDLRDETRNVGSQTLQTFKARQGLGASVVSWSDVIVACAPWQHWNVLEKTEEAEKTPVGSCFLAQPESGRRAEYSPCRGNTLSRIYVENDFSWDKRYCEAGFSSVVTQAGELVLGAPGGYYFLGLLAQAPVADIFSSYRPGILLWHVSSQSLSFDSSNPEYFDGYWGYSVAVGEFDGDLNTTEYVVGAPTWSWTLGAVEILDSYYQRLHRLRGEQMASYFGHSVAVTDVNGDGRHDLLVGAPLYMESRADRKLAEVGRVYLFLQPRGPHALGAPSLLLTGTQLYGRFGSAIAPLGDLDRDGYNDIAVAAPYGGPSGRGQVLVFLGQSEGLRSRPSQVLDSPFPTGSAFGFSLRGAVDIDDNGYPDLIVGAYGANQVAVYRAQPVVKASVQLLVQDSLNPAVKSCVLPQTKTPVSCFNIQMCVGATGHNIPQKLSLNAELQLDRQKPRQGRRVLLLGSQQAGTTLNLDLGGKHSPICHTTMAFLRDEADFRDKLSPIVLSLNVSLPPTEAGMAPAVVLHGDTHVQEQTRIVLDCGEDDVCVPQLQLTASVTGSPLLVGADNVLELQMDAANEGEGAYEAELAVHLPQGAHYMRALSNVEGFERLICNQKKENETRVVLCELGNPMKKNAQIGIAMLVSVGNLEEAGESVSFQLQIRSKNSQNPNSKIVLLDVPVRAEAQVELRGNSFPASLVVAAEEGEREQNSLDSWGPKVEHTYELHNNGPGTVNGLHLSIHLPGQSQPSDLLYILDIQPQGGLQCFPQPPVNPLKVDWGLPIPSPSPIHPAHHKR
Sequence of RGD-affinity purified GPIIb/IIIa (P08514 891-1039 partner limits assumed): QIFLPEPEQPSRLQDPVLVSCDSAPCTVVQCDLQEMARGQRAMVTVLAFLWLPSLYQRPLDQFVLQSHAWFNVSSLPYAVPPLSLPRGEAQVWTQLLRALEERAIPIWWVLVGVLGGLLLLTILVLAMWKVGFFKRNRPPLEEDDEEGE
Sequence of RGD-affinity purified GPIIb/IIIa (P05106 27-788): as the sequence (P05106 27-788) above

Row | SMILES | IC50 [1] [nM] | IC50 (Human αvβ3) [nM]
1 | O=C(O)C[C@H](NC(=O)C1CCN(C(=O)CCCNC2=NCCN2)CC1)c1ccc(Cl)nc1 [Compound 3, 6-chloro-β-[[[1-[4-[(4,5-dihydro-1H-imidazol-2-yl)amino]-1-oxobutyl]-4-piperidinyl]carbonyl]amino]-, (β^3S)-3-pyridinepropanoic acid] | 130 | 28
2 | C[C@H](CC(=O)O)NC(=O)C1CCN(C(=O)CCCNC2=NCCN2)CC1 [Compound 4, 3-[[[1-[4-[(4,5-dihydro-1H-imidazol-2-yl)amino]-1-oxobutyl]-4-piperidinyl]carbonyl]amino]-, (3R)-butanoic acid] | 1700 | 150
3 | CC(CNC1=NCCN1)C(=O)N1CCC(C(=O)N[C@@H](CC(=O)O)c2cnc3ccccc3c2)CC1 (stereo partly drawn) [Compound 5, β-[[[1-[3-[(4,5-dihydro-1H-imidazol-2-yl)amino]-2-methyl-1-oxopropyl]-4-piperidinyl]carbonyl]amino]-, (β^3S)-3-quinolinepropanoic acid] | 23 | 15
4 | O=C(O)CC(NC(=O)C1CCN(C(=O)CCc2nc3ccccc3[nH]2)CC1)c1cnc2ccccc2c1 (stereo not drawn) [Compound 7] | 7900 | 490
5 | O=C(N[C@@H](CNC(=O)C1CCN(C(=O)CCc2nc3ccccc3[nH]2)CC1)C(=O)O)OCc1ccccc1 [Compound 8] | 1100 | 550
6 | O=C(O)CC(NC(=O)C1CCN(C(=O)C2CCNCC2)CC1)c1cnc2ccccc2c1 (stereo not drawn) [Compound 9] | 300 | 30000
7 | O=C(N[C@@H](CNC(=O)C1CCN(C(=O)NCCCn2ccnc2)CC1)C(=O)O)OCc1ccccc1 [Compound 10] | 950 | > 50000
8 | O=C(N[C@@H](CNC(=O)C1CCN(C(=O)C2CCN(C3=NCCN3)CC2)CC1)C(=O)O)OCc1ccccc1 [Compound 11, 3-[[[1-[[1-(4,5-dihydro-1H-imidazol-2-yl)-4-piperidinyl]carbonyl]-4-piperidinyl]carbonyl]amino]-N-[(phenylmethoxy)carbonyl]-L-alanine] | 2.6 | 1300
9 | O=C(N[C@@H](CNC(=O)C1CCN(C(=O)CCNC2=NCCN2)CC1)C(=O)O)OCc1ccccc1 [Compound 12] | 14 | 20
10 | O=C(O)CC(NC(=O)C1CCN(C(=O)CCc2nc3ccccc3[nH]2)CC1)c1ccc2c(c1)OCCO2 (stereo not drawn) [Compound 13] | 29000 | 10000
11 | O=C(N[C@@H](CNC(=O)C1CCN(C(=O)[C@@H]2C=C[C@H](NC3=NCCN3)C2)CC1)C(=O)O)OCc1ccccc1 [Compound 14, 3-[[[1-[[(1S,4R)-4-[(4,5-dihydro-1H-imidazol-2-yl)amino]-2-cyclopenten-1-yl]carbonyl]-4-piperidinyl]carbonyl]amino]-N-[(phenylmethoxy)carbonyl]-L-alanine] | 9.2 | 50
12 | O=C(O)CC(NC(=O)C1CCN(C(=O)CCc2nc3ccccc3[nH]2)CC1)c1cccc2ccccc12 (stereo not drawn) [Compound 15] | 17000 | > 5000
13 | O=C(N[C@@H](CNC(=O)C1CCN(C(=O)[C@H]2C=C[C@@H](NC3=NCCN3)C2)CC1)C(=O)O)OCc1ccccc1 [Compound 17, 3-[[[1-[[(1R,4S)-4-[(4,5-dihydro-1H-imidazol-2-yl)amino]-2-cyclopenten-1-yl]carbonyl]-4-piperidinyl]carbonyl]amino]-N-[(phenylmethoxy)carbonyl]-L-alanine] | 5.4 | 380
14 | O=C(N[C@@H](CNC(=O)C1CCN(C(=O)CC(CNC2=NCCN2)c2ccc(Cl)cc2)CC1)C(=O)O)OCc1ccccc1 (stereo partly drawn) [Compound 18] | 15 | 50
15 | O=C(O)C[C@H](NC(=O)C1CCN(C(=O)CC2(CNC3=NCCN3)CCCCC2)CC1)c1ccc(Cl)nc1 [Compound 19] | 71 | 320
16 | O=C(O)CC(NC(=O)C1CCN(C(=O)CCCNC2=NCCN2)CC1)c1ccsc1 (stereo not drawn) [Compound 20] | 4900 | 530
17 | O=C(O)CC(NC(=O)C1CCN(C(=O)CCCNC2=NCCN2)CC1)c1ccc2c(c1)OCO2 (stereo not drawn) [Compound 21] | 410 | 23
18 | Cc1cccc(C(CC(=O)O)NC(=O)C2CCN(C(=O)CCCNC3=NCCN3)CC2)c1 (stereo not drawn) [Compound 22] | 38000 | > 500

Further lines, results first:

Row | IC50 [1] [nM] | IC50 (Human αvβ3) [nM] | SMILES
19 | 7300 | > 500 | O=C(O)CC(NC(=O)C1CCN(C(=O)CCCNC2=NCCN2)CC1)c1ccc2c(c1)CCO2 (stereo not drawn) [Compound 23]
20 | 2200 | 64 | COc1cc(OC)cc(C(CC(=O)O)NC(=O)C2CCN(C(=O)CCCNC3=NCCN3)CC2)c1 (stereo not drawn) [Compound 24]
21 | 2900 | 32 | O=C(O)CC(NC(=O)C1CCN(C(=O)CCCNC2=NCCN2)CC1)c1cccnc1 (stereo not drawn) [Compound 25]
22 | 1800 | 120 | O=C(O)CC(NC(=O)C1CCN(C(=O)CCCNC2=NCCN2)CC1)c1cc(Cl)cc(Cl)c1 (stereo not drawn) [Compound 26]
23 | 13000 | > 500 | O=C(O)CC(NC(=O)C1CCN(C(=O)CCCNC2=NCCN2)CC1)c1cccc(C(F)(F)F)c1 (stereo not drawn) [Compound 27]
24 | 1500 | 8.2 | O=C(N[C@@H](CNC(=O)C1CCN(C(=O)OCCNC2=NCCN2)CC1)C(=O)O)OCc1ccccc1 [Compound 28, 4-[[[(2S)-2-carboxy-2-[[(phenylmethoxy)carbonyl]amino]ethyl]amino]carbonyl]-, 2-[(4,5-dihydro-1H-imidazol-2-yl)amino]ethyl ester 1-piperidinecarboxylic acid]
25 | 210 | 34 | O=C(O)CC(NC(=O)C1CCN(C(=O)OCCNC2=NCCN2)CC1)c1ccc2c(c1)OCO2 (stereo not drawn) [Compound 29]
26 | 56000 | 140 | O=C(O)C[C@H](NC(=O)C1CCN(C(=O)CCCNc2ccccn2)CC1)c1cccnc1 [Compound 30]
27 | 4200 | 29 | O=C(O)CC(NC(=O)C1CCN(C(=O)OCCNC2=NCCN2)CC1)c1cccnc1 (stereo not drawn) [Compound 31]
28 | 3600 | 120 | O=C(O)CC(NC(=O)C1CCN(C(=O)CCCNC2=NCCN2)CC1)c1cccc(F)c1 (stereo not drawn) [Compound 32]
29 | 1800 | 19 | O=C(O)C[C@H](NC(=O)C1CCN(C(=O)CCCNC2=NCCN2)CC1)c1cccnc1 [Compound 33]
30 | 1600 | 140 | O=C(O)CC(NC(=O)C1CCN(C(=O)OCCNC2=NCCN2)CC1)c1cc(F)cc(F)c1 (stereo not drawn) [Compound 35]
31 | 12000 | > 300 | O=C(O)CC(NC(=O)C1CCN(C(=O)CCCNC2=NCCN2)CC1)c1cccc2ccccc12 (stereo not drawn) [Compound 36]
32 | 1700 | 290 | O=C(O)CC(NC(=O)C1CCN(C(=O)CCCNC2=NCCN2)CC1)c1ccc2ccccc2c1 (stereo not drawn) [Compound 37]
33 | 3300 | > 300 | O=C(O)CC(NC(=O)C1CCN(C(=O)CCCNC2=NCCN2)CC1)c1cc(F)cc(F)c1 (stereo not drawn) [Compound 38]
34 | 36 | 2.3 | O=C(O)C[C@H](NC(=O)C1CCN(C(=O)OCCNC2=NCCN2)CC1)c1cnc2ccccc2c1 [Compound 39, β-[[[1-[[2-[(4,5-dihydro-1H-imidazol-2-yl)amino]ethoxy]carbonyl]-4-piperidinyl]carbonyl]amino]-, (β^3S)-3-quinolinepropanoic acid]
35 | 1100 | 12 | O=C(O)C[C@H](NC(=O)C1CCN(C(=O)OCCNC2=NCCN2)CC1)c1cccnc1 [Compound 40]
36 | 110 | > 300 | Cc1cccnc1NCCCC(=O)N1CCC(C(=O)NC[C@H](NC(=O)OCc2ccccc2)C(=O)O)CC1 [Compound 41]
37 | 140 | 170 | COC(=O)[C@H](CNC(=O)C1CCN(C(=O)CCCNC2=NCCN2)CC1)NC(=O)OCc1ccccc1 [Compound 42]
38 | 1300 | 230 | O=C(O)CC(NC(=O)C1CCN(C(=O)CCCNC2=NCCN2)CC1)c1ccc(F)c(F)c1 (stereo not drawn) [Compound 43]
39 | 28 | 4 | CC(CCNC1=NCCN1)C(=O)N1CCC(C(=O)NC[C@H](NC(=O)OCc2ccccc2)C(=O)O)CC1 (stereo partly drawn) [Compound 47, 3-[[[1-[4-[(4,5-dihydro-1H-imidazol-2-yl)amino]-2-methyl-1-oxobutyl]-4-piperidinyl]carbonyl]amino]-N-[(phenylmethoxy)carbonyl]-L-alanine]
